The text below walks through data of ChEMBL document CHEMBL4229567, “Aiming to Miss a Moving Target: Bromo and Extra Terminal Domain (BET) Selectivity in Constrained ATAD2 Inhibitors” (J Med Chem, 2018).

In assay [1] the target is Bromodomain-containing protein 4 (Homo sapiens, UniProt O60885). The assay is described as follows: Inhibition of 6His-tagged Thr-BRD4 (BD1) (1 to 477 residues) (unknown origin) expressed in Escherichia coli BL21(DE3) after 30 mins in presence of biotinylated triacetylated histone H4 peptide by alexa fluor 647 dyse based TR-FRET assay. For orientation: In TR-FRET formats the signal depends on donor and acceptor labels being close together.

Assay [2] concerns the target T1, ATPase family AAA domain-containing protein 2 (Homo sapiens, UniProt Q6PL18).
T1 sequence (Q6PL18 whole entry): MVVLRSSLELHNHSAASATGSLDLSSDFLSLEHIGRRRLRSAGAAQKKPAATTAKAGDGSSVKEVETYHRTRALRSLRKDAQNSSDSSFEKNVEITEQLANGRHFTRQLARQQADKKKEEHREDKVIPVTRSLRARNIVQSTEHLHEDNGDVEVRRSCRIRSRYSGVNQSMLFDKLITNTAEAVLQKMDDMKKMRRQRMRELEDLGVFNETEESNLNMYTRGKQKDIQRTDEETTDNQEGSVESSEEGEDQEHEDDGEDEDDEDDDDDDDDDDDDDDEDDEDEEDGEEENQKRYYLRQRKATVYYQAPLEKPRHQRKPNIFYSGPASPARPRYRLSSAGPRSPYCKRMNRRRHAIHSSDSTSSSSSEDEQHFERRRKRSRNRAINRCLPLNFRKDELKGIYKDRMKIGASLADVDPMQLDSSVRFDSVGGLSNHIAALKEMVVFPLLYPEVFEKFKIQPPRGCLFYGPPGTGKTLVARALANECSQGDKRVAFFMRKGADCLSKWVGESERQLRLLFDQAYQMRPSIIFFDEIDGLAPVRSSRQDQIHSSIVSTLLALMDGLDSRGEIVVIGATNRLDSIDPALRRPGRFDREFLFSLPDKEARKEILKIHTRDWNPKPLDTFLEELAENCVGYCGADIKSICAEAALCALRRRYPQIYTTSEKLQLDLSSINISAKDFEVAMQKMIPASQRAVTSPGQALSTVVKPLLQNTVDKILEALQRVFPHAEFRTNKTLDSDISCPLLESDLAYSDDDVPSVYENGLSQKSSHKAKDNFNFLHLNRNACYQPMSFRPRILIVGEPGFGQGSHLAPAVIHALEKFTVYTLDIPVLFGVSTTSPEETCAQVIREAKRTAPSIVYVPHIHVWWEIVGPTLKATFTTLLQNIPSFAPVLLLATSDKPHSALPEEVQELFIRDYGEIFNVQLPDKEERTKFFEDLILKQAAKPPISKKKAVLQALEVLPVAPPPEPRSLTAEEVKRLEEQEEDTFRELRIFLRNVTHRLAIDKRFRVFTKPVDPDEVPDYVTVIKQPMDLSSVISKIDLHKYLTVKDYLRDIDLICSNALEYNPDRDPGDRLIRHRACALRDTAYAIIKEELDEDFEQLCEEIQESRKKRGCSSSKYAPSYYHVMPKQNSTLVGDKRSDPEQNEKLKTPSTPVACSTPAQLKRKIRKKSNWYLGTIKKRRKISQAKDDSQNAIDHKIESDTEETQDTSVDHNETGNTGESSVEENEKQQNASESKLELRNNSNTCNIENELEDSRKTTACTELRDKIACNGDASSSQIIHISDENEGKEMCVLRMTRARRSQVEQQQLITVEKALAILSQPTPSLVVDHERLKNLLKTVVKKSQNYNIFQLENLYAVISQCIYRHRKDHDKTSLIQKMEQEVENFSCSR
The assay is described as follows: Inhibition of N-terminal FLAG-6His-tagged TEV-fused ATAD2 (981 to 1121 residues) (unknown origin) expressed in Escherichia coli BL21(DE3) after 30 mins in presence of biotinylated triacetylated histone H4 peptide by alexa fluor 488-dye based TR-FRET assay.

A value given as a limit tells only on which side of the number the result lay.

One may read the IC50 as the concentration that inhibits the measured activity by half. On to `Cc1cncc(-c2cnc(N[C@@H]3CCNC[C@H]3OCC3CCOCC3)c3[nH]c(=O)c(C)cc23)c1`, for which the IC50 in assay [1] was 10 µM.
For the compound `Cc1cc2ccnc(N[C@@H]3CCNC[C@H]3OCC3CCCCC3)c2[nH]c1=O`, in assay [1], the IC50 is 3.98 µM.
Consider `CO[C@@H]1CNCC[C@H]1Nc1nccc2cc(C)c(=O)[nH]c12`, for which the IC50 in assay [1] was 5.01 µM.
`CO[C@H]1CNC[C@@H](OC)[C@@H]1Nc1nccc2cc(C)c(=O)[nH]c12`: the IC50 in assay [2] and in assay [1] was 25.1 µM in each case.
Turning to `Cc1cncc(-c2cnc(N[C@@H]3C[C@H]4CC[C@H](N4)[C@H]3CCC3CCOCC3)c3[nH]c(=O)c(C)cc23)c1`, the IC50 in assay [2] is 0.251 µM; in assay [1], 7.94 µM.
For the compound `Cc1cncc(-c2cnc(N[C@@H]3C[C@H]4CC[C@H](N4)[C@H]3CCC3CCC(F)(F)CC3)c3[nH]c(=O)c(C)cc23)c1`, the IC50 in assay [2] was 0.1 µM; in assay [1], 5.01 µM.
Consider `Cc1cncc(-c2ccc(N[C@@H]3CCNC[C@H]3OCC3CCC(F)(F)CC3)c3[nH]c(=O)c(C)cc23)c1`, for which the 50% inhibitory concentration (IC50) is 0.0398 µM in assay [2] and 6.31 µM in assay [1].
Consider `Cc1cncc(-c2cnc(N[C@@H]3C[C@H]4CC[C@H](N4)[C@H]3CCC3CCS(=O)(=O)CC3)c3[nH]c(=O)c(C)cc23)c1`, for which the concentration for half-maximal inhibition (IC50) was 0.251 µM in assay [2] and greater than 50.1 µM in assay [1].
Regarding `CO[C@H]1CNC[C@@H](OCC2CCOCC2)[C@@H]1Nc1ncc(-c2cncc(C)c2)c2cc(C)c(=O)[nH]c12`, the concentration for half-maximal inhibition (IC50) in assay [2] was 0.2 µM; in assay [1], 31.6 µM.
On the same counts, the results for `Cc1cncc(-c2ccc(N[C@@H]3C[C@H]4CC[C@H](N4)[C@H]3CCC3CCS(=O)(=O)CC3)c3[nH]c(=O)c(C)cc23)c1` are 0.251 µM and 5.01 µM.
The corresponding values for `CO[C@H]1CNC[C@@H](OCC2CCS(=O)(=O)CC2)[C@@H]1Nc1ncc(-c2cncc(C)c2)c2cc(C)c(=O)[nH]c12` are 0.126 µM and 158 µM.
